Like-named read-outs stand apart in the source and are kept apart here.
Tests used:
Test in all cases: kinase profiling panel
Assay type in all cases: biochemical
Conditions in all cases: read-out: % Activity Remaining
TBK1 = target: T1, TBK1 (Homo sapiens, UniProt Q9UHD2)
T1 sequence (Q9UHD2 1-729): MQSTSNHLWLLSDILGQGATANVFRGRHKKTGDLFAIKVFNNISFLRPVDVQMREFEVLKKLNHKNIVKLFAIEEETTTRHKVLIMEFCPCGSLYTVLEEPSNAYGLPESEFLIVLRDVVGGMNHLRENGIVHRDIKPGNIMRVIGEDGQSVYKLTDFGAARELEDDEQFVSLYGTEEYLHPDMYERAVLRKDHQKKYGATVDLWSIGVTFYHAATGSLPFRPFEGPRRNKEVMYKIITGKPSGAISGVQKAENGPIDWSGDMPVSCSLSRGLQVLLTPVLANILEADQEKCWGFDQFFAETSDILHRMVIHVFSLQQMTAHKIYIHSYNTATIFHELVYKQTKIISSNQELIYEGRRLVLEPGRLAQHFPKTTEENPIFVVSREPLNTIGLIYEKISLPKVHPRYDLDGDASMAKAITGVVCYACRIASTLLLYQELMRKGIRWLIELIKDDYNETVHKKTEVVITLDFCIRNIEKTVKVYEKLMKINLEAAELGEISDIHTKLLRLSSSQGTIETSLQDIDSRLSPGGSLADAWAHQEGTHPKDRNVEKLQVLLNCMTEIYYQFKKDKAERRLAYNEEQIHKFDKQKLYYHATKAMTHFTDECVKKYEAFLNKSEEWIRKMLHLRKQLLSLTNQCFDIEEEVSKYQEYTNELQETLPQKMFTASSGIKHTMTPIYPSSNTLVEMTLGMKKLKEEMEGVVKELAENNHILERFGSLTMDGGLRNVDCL
Text: (§1) Protein kinase profiling against a Dundee panel of 140 protein kinases was undertaken at the International Centre for Protein Kinase Profiling. The result for each kinase was presented as a mean kinase activity of the reaction taken in triplicate relative to a control sample treated with DMSO. Assay conditions and abbreviations are available at http://www.kinase-screen.mrc.ac.uk.

EF2K = EF2K (Homo sapiens, UniProt O00418)
Text: as §1

PIM3 = PIM3 (Homo sapiens, UniProt Q86V86)
Text: as §1

CDK9-Cyclin T1 = CDK9-Cyclin T1 (Homo sapiens, UniProt P50750)
Text: as §1

PRAK = target: T2, PRAK (Homo sapiens, UniProt Q8IW41)
T2 sequence (Q8IW41 1-473): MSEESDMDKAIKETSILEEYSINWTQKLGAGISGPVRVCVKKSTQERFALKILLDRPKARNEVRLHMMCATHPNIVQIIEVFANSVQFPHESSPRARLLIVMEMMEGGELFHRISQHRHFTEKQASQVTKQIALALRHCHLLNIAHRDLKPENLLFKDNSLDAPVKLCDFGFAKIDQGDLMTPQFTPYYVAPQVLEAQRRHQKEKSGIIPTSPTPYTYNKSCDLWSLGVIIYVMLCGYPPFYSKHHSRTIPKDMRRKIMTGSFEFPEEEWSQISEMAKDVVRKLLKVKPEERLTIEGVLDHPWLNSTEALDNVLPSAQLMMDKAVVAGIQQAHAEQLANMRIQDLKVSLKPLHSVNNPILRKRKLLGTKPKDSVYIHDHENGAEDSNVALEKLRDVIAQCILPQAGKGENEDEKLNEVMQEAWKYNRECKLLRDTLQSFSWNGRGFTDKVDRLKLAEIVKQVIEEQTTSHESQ
Text: as §1

Src = Src (Homo sapiens, UniProt P12931)
Text: as §1

ULK2 = target: T3, ULK2 (Homo sapiens, UniProt Q8IYT8)
T3 sequence (Q8IYT8 1-1036): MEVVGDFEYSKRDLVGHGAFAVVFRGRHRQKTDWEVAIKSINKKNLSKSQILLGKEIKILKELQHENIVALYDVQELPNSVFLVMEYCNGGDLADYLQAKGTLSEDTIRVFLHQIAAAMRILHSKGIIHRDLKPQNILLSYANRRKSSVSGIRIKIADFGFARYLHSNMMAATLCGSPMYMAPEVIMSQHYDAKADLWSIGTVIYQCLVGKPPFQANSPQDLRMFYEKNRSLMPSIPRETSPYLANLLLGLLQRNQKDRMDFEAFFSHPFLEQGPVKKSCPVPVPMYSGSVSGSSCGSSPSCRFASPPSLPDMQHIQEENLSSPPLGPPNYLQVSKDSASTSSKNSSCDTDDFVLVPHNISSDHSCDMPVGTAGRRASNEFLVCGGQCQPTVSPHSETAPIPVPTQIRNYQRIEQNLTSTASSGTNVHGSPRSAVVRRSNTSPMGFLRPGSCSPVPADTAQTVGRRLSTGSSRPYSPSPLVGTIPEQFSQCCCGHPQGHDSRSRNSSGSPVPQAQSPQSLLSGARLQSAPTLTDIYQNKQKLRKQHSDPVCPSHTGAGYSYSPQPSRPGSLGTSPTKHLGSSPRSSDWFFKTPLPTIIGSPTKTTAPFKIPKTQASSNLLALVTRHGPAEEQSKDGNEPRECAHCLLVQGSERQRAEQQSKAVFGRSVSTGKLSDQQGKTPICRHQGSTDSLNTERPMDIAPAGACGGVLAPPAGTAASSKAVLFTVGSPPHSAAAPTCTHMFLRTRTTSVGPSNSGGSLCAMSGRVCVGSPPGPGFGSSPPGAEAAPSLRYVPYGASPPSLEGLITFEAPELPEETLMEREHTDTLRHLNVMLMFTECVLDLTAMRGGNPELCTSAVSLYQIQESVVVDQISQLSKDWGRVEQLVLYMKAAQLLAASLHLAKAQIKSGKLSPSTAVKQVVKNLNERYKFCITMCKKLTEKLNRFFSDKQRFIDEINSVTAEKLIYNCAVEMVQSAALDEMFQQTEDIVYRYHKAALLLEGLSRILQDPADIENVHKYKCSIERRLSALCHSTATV
Text: as §1

TrkA = TrkA (Homo sapiens, UniProt P04629)
Text: as §1

Chain of CDK9-Cyclin T1 (P50750 whole entry): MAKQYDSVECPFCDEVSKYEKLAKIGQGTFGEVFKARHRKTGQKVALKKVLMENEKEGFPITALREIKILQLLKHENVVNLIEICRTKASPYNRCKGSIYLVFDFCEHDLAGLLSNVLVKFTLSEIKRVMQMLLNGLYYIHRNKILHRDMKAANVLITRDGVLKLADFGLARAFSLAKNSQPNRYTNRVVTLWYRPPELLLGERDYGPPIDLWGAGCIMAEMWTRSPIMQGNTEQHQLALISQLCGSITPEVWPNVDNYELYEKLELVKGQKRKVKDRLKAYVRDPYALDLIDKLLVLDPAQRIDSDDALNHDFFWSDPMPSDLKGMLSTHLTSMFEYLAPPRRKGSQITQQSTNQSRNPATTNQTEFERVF
Chain of CDK9-Cyclin T1 (O60563 whole entry partner): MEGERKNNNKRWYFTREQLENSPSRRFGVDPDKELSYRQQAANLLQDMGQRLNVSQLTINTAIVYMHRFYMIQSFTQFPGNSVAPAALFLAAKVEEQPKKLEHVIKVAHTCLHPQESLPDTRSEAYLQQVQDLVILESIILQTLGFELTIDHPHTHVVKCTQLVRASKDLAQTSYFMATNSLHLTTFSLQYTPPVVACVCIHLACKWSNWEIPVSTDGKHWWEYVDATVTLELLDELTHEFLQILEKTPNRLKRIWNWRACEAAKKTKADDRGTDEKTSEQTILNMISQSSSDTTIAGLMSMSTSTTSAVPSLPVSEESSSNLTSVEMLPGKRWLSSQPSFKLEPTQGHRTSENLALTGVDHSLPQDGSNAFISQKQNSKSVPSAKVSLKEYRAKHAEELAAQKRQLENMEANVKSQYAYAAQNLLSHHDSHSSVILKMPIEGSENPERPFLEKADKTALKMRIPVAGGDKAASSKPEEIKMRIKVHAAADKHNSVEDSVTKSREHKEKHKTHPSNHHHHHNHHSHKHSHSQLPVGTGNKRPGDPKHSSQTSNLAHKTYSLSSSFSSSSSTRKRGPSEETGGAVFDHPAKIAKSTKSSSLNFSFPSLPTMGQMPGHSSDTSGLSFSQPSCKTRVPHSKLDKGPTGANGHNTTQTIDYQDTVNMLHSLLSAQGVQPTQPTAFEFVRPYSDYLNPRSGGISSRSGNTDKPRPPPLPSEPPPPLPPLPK
Chain of TrkA (P04629 33-796): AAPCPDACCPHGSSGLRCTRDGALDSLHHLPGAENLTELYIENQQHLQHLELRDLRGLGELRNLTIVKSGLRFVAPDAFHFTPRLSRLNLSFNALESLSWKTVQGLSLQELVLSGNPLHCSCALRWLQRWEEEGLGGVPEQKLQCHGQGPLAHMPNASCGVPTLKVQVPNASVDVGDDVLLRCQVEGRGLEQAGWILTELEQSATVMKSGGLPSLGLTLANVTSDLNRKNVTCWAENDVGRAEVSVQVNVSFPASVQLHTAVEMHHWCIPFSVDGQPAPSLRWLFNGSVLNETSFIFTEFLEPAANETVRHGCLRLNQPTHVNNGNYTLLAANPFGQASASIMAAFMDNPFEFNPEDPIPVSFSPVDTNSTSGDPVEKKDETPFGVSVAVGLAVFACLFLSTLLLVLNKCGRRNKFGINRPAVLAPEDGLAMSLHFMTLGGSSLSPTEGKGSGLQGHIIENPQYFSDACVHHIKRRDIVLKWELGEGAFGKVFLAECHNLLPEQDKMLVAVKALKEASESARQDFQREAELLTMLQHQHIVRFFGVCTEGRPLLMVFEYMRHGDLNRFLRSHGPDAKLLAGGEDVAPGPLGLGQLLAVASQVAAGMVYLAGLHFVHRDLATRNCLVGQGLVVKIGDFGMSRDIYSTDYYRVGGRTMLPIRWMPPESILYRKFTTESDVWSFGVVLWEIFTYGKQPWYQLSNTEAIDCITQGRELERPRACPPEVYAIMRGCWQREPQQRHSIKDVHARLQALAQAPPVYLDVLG
Chain of Src (P12931 whole entry): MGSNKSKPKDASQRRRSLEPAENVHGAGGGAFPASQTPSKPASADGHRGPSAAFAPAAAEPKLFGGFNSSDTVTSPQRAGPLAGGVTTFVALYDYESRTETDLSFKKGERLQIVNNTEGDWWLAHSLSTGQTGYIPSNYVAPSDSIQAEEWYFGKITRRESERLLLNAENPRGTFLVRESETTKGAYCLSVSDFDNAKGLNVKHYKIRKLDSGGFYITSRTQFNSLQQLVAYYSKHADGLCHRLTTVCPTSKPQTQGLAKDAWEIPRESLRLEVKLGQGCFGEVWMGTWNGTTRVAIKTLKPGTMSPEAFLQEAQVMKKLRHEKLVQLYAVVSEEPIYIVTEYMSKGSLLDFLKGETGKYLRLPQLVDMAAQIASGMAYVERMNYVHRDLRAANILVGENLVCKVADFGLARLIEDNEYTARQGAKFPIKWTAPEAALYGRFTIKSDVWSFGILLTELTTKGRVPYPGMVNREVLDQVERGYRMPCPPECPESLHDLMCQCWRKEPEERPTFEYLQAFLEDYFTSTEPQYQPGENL

| SMILES | remaining activity at 1 µM (TBK1) [%] | remaining activity at 1 µM (EF2K) [%] | remaining activity at 1 µM (PIM3) [%] | remaining activity at 1 µM (CDK9-Cyclin T1) [%] | remaining activity at 1 µM (PRAK) [%] | remaining activity at 1 µM (Src) [%] | remaining activity at 1 µM (ULK2) [%] | remaining activity at 1 µM (TrkA) [%] | remaining activity at 1 µM (TBK1; 1 µM) [%] | remaining activity at 1 µM (EF2K; 1 µM) [%] | remaining activity at 1 µM (PIM3; 1 µM) [%] | remaining activity at 1 µM (CDK9-Cyclin T1; 1 µM) [%] | remaining activity at 1 µM (PRAK; 1 µM) [%] | remaining activity at 1 µM (Src; 1 µM) [%] | remaining activity at 1 µM (ULK2; 1 µM) [%] | remaining activity at 1 µM (TrkA; 1 µM) [%] |
| --- | --- | --- | --- | --- | --- | --- | --- | --- | --- | --- | --- | --- | --- | --- | --- | --- |
| COc1ccc(Cl)c(S(=O)(=O)Nc2ccc(-c3nc(OC[C@H]4CNCCO4)c4c(C)n[nH]c4n3)cc2)c1 [290-R, reference compound] | 62 | 112 | 105 | 105 | 78 | 104 | 46 | 104 |  |  |  |  |  |  |  |  |
| Cc1ccc(F)c(S(=O)(=O)Nc2ccc(-c3nc(OC[C@H]4CNCCO4)c4cn[nH]c4n3)cc2)c1 [308-R, reference compound] | 83 | 128 | 76 | 63 | 86 | 131 | 59 | 71 |  |  |  |  |  |  |  |  |
| Cc1ccc(F)c(S(=O)(=O)Nc2ccc(-c3nc(OC[C@H]4CN(CCCCCCOCCOCCOCC(=O)N[C@H](C(=O)N5C[C@H](O)C[C@H]5C(=O)NCc5ccc(-c6scnc6C)cc5)C(C)(C)C)CCO4)c4cn[nH]c4n3)cc2)c1 [SGK3-PROTAC1] |  |  |  |  |  |  |  |  | 93 | 98 | 88 | 103 | 115 | 83 | 103 | 112 |
| Cc1ccc(F)c(S(=O)(=O)Nc2ccc(-c3nc(OC[C@H]4CN(CCCCCCOCCOCCOCC(=O)N[C@H](C(=O)N5C[C@@H](O)C[C@H]5C(=O)NCc5ccc(-c6scnc6C)cc5)C(C)(C)C)CCO4)c4cn[nH]c4n3)cc2)c1 [cisSGK3-PROTAC1] |  |  |  |  |  |  |  |  | 111 | 105 | 89 | 105 | 119 | 87 | 117 | 102 |
